The Tmax is the time from dosing to the highest level. In general, half-life refers to the time in which the quantity being followed falls by half. A word on the Cmax: it is the maximum level reached in the sampled fluid or tissue.

For data set [1], the system named is rats. On the set-up: method as in PMID 19154445. The conditions noted are these: cited from earlier work.
Data set [2] concerns PCP-induced deficits. On the set-up: method as in PMID 20488670. The conditions noted are these: cited from earlier work.
Data set [3] is described as follows: in vivo. On the set-up: species or system mice. The conditions noted are these: mouse. As for the experimental part: The experiment was performed using the methods described by Bridges et al. and in our previous studies.
The pharmacokinetic analysis was performed in the blood and prefrontal cortex. […] Plasma and FC samples were stored at −80 °C until analysis.
The drug was administered at a dose of 0.1 mg/kg; brain and tissue samples were collected 15, 30, 60, and 120 min after administration.
On the day of analysis, frozen whole mouse brain tissues were weighed and homogenized in 1:2 (w/v) volumes of ice-cold acetonitrile containing 0.1% FA and the internal standard mix. Samples were homogenized using a Metal Bead Lysing Matrix, vortexed for 1 min, shaken for 20 min at 4 °C on Thermomixer C, and centrifuged at 14,000× g rpm for 20 min at 4 °C. Finally, 50 µL of supernatant were diluted with 0.1% FA in water (1:1, v/v) and analyzed using HPLC/MS/MS.
The sample extraction of plasma (20 μL) was performed after spiking with the internal standard mix using the protein precipitation method and three volumes of ice-cold acetonitrile containing 0.1% formic acid. The extract was vortexed, incubated on ice for 20 min and centrifuged at 14,000× g rpm for 20 min at 4 °C. The supernatant was diluted with 0.1% FA in water (1:1, v/v) and analyzed by means of HPLC/MS/MS using a QTRAP 4500 (AB Sciex) mass spectrometer in positive ion mode in Multiple Reaction Monitoring (MRM screening) coupled with UHPLC (NEXERA XR, Shimadzu). Chromatographic separation was achieved on a Synergi 4 µm Fusion-RP 80 A 50 × 2 mm (Phenomenex) column at a flow rate of 0.2 mL/min. The gradient program was as follows: 20% B (0.3 min), 20–100% B (1.7 min), 100% B (3 min), 100–20% B (0.1 min), 20% B (2 min), solvent A (95:5:0.1% formic acid in water:methanol) and solvent B (methanol containing 0.1% formic acid). The column temperature was set to 40 °C. Analyst software was used to control the instrument and collect data. The ion transfer tube temperature was 300 °C. The spray voltage, collision energy, declastering potential, and gas parameters were optimized to achieve the maximal response using the test compounds. Selected reaction monitoring was carried out using the transition parameters. Calibration curves were constructed, and a linear response was obtained in the range of 0.25–500 ng/mL (VU357017, VU0152100, and F15599) and 1.25–2500 ng/mL (VU0238429) by spiking known amounts of each compound in blank brain homogenates and plasma. For VU0357017 and F15599 IS VU0152100 was used as internal standard. Sample concentration of internal standard was 100 ng/mL for IS VU0238429 and 50 ng/mL for IS VU0152100.

On the set-up of data set [4]: method as in PMID 31174329, PMID 19438238. The conditions noted are these: earlier studies; cited from earlier work.

For `Cc1cnc(CNCC2(F)CCN(C(=O)c3ccc(F)c(Cl)c3)CC2)nc1` [F15599], the “Doses inducing some adverse effects related to serotonergic syndrome” value in data set [1] is “greater than 0.16 mg/kg”. Further, the “Effect on PCP-induced deficits during the reversal phase of the learning task and in the hole-board test” value in data set [2] is reported as “ameliorated”. Besides, the “Time after administration up to which drug was detected in the frontal cortex” value in data set [3] (Albino Swiss) is on record as “up to 2 h”. In addition, in data set [3] (Albino Swiss, ip, 0.1 mg/kg), the Tmax was 15 min, the “Tmax PFC (FC)” value was found to be 15 min and the half-life was 120 min. The Cmax in data set [3] (Albino Swiss, ip, 0.1 mg/kg, Cmax PFC (FC)) worked out at 48 ng/mL. Further, the Cmax in data set [3] (Albino Swiss, ip, 0.1 mg/kg, Cmax plasma) stood at 27 ng/mL. The half-life in data set [3] (ip, 0.1 mg/kg) amounted to 35 min.
Turning to `COc1ccc(CN2C(=O)C(=O)c3cc(OC(F)(F)F)ccc32)cc1` [VU0238429], the “Brain penetration (whole brain)” value in data set [4] is no more than 8%.

Source of the values: PMC8395335, “Serotonergic–Muscarinic Interaction within the Prefrontal Cortex as a Novel Target to Reverse Schizophrenia-Related Cognitive Symptoms” (International Journal of Molecular Sciences, 2021).
